This is an account of results in paper PMC6984391, “Anion carriers as potential treatments for cystic fibrosis: transport in cystic fibrosis cells, and additivity to channel-targeting drugs” (Chemical Science, 2019).

Details of assay [1]: method as in ref [20], [21], [23], [24], [29] (Reference column). To be noted: transporter preincorporated in LUVs (70% POPC + 30% cholesterol), 25 mM NaCl gradient, 225 mM NaNO3; ref [20], [21], [23], [24], [29]; cited from earlier work.
Details of assay [2]: method as in ref [20], [23] (Reference column). To be noted: extraction of Et4N^+Cl^– from water into chloroform at 303 K; ref [20], [23]; cited from earlier work.
Another assay relates to YFP-FRT cells. The assay is described as follows: Persistence of anion transport by fluorescence microscopy in YFP-FRT cells. It counts as cell-based, Fischer rat. The conditions noted are these: 10 μM, continuous perfusion. As to the method: the PBS bathing cells 10 minutes prior to PBS iodide addition, whereas UTP was added to cells with the PBS iodide solution. Fluorescence was measured for 14 seconds; 2 seconds before and 12 seconds after injection of 110 µl PBS iodide solution (137 mM Cl- replaced by I-) into each well (to obtain a final concentration of I- of 100 mM).
We expressed cell fluorescence values (F) relative to the fluorescence value immediately before I- injection (F0), excluding the initial decrease, which likely represents the quenching of extracellular YFP released from cells and signal reduction accompanying the increase in solution volume bathing cells. To quantify anion transport by test anionophores, we determined the initial slope of the fluorescence decay following I - addition by fitting first order exponential functions to the last 12 seconds of each fluorescence recording. […]
fluorescence microscopy as described previously.10 In brief, YFP-FRT cells were washed 3x with PBS before transfer to a perfusion chamber mounted on the stage of a Leica DM IRB microscope. […] Any anionophore not incorporated into YFP-FRT cell membranes was removed from the chamber by perfusion with PBS when fluorescence measurements commenced. […]
Fluorescence data from 5 – 9 cells per coverslip were analysed with 4 coverslips tested for each anionophore. […]

A short description of assay [3]: Affinity to Cl- by 1H NMR titration with Bu4N+Cl- in DMSO-d6/H2O (200:1). It counts as binding. To be noted: 1H NMR titration with Bu4N^+Cl^– in DMSO-d6/H2O (200 : 1) at 298 K; new compound. As to the method:
The binding constant to chloride was assessed using 1H NMR titrations with n-Bu4N+Cl- in DMSO-d6/H2O (200:1). The hygroscopic guest n-Bu4N+Cl- and the host compounds were dried under high vacuum to remove residual solvents or water prior to solution preparation. The concentration of the host was around 1 mM in all titrations; the concentration of guest and the volumes of the aliquots of guest solution added to the host solution were varied o ver the experiments. The guest solutions contained the same concentrations of host as the starting host solution (i.e., n-Bu4N+Cl- was dissolved in a solution of ~1 mM host in DMSO-d6/H2O (200:1)), […]
NMR titration binding studies were performed using a Varian 500b NMR spectrometer at 298
K. The shift of both NH signals in DMSO were fitted to 1:1 binding model using a least -squares fitting procedure in a custom -made Excel spreadsheet .
Figure S6. Downfield region of the 1H NMR spectra from the titration of tetrabutylammonium chloride into 12 […]
(1 picture or pasted object on this page, not shown here)

As to `CCOC(=O)[C@]12CC[C@@H](NC(=S)Nc3cc(C(F)(F)F)cc(C(F)(F)F)c3)C[C@@H]1C[C@@H](NC(=S)Nc1cc(C(F)(F)F)cc(C(F)(F)F)c1)CC2` [Compound 15], the “Specific initial rate [I]” value in assay [1] was 2600 s^–1. Moreover, the “K a to Cl^– in CHCl3” value in assay [2] is on record as 4.7 × 10^8 M^–1.
As for `CCOC(=O)[C@]12CC[C@@H](NC(=S)Nc3ccc([N+](=O)[O-])cc3)C[C@@H]1C[C@@H](NC(=S)Nc1ccc([N+](=O)[O-])cc1)CC2` [Compound 12], the “duration of anion transport after anionophore delivery” value with YFP-FRT cells is recorded as “up to 2 h”. Moreover, the “K a to Cl^– in DMSO” value in assay [3] was 1.7 × 10^3 M^–1.
